Here are results for one compound from ChEMBL document CHEMBL4152207, “Discovery of potent and selective BRD4 inhibitors capable of blocking TLR3-induced acute airway inflammation” (Eur J Med Chem, 2018).

In data set [1] the target is Mu-type opioid receptor (Homo sapiens) (UniProt P35372). Put plainly: Displacement of [3H]DAMGO from human recombinant mu opioid receptor at 10 uM after 120 mins by scintillation counting analysis relative to control.
In data set [2] the target is Histamine H1 receptor (Homo sapiens) (UniProt P35367). Put plainly: Displacement of [3H]pyrilamine from human recombinant histamine H1 receptor at 10 uM after 60 mins by scintillation counting analysis relative to control. (Displacement assays read how much labelled ligand stays bound in the presence of the test substance.)
Sequence of Histamine H1 receptor (Homo sapiens) (P35367 whole entry): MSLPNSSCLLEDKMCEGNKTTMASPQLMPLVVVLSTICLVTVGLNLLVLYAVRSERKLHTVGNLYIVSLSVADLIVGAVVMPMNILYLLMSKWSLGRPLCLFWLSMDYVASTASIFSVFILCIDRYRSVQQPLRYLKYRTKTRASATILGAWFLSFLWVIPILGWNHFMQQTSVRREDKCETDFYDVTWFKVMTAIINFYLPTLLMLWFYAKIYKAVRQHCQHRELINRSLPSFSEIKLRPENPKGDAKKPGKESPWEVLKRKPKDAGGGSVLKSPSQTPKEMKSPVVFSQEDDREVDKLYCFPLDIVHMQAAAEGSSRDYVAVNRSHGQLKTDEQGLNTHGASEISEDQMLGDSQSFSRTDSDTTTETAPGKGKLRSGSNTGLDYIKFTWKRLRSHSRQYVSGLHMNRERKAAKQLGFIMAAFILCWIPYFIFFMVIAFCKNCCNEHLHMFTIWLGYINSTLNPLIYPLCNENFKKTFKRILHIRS
Data set [3] in a line: Half life in rat at 10 mg/kg, iv. It is filed as ADME, organism-based. The following applies: in vivo.

Sequence of Mu-type opioid receptor (Homo sapiens) (P35372 whole entry): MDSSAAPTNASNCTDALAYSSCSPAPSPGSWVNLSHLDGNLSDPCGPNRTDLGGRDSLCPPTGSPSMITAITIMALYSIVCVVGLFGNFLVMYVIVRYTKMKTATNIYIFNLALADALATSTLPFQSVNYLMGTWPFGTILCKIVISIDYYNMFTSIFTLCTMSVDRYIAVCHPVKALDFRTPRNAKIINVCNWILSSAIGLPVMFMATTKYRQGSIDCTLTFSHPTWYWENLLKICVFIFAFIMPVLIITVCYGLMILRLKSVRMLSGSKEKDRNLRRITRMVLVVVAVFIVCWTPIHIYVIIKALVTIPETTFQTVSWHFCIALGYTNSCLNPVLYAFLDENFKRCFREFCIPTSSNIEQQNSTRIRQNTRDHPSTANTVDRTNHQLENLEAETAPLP

In general, half-life refers to the time needed for the level to fall by half in the phase considered. On to `Cc1cc(/N=N/c2ccc(S(=O)(=O)NC3CCCC3)cc2)c(N)cc1O`, for which the Activity in data set [1] is 17.4%; in data set [2], 7.1%. Besides, the half-life in data set [3] is 49.8 min.
